Assays:
KB cells = assay: In vitro PDT/PCI phototoxicity with saporin, MTT assay; format: cell-based, human; settings: saporin 20 nM, without photosensitiser
[1] = in dimethylformamide; cited from earlier work
[2] = Singlet oxygen quantum yield by time-resolved 1270 nm phosphorescence in deuterated methanol; format: physicochemical; settings: aerated deuterated methanol (CD3OD); 532 nm laser excitation; absorbance matched to Rose Bengal reference; zero-time intercept analysis; estimated experimental error +/- 0.06
Method: For the singlet oxygen studies, absorption spectra of the compounds were measured using a Perkin-Elmer Lambda 25 UV/Vis spectrometer (Perkin-Elmer, Beaconsfield, UK) with quartz cuvettes. The singlet oxygen phosphorescence at 1270 nm was detected using time-resolved photon counting from aerated solutions in deuterated methanol (CD3OD) in quartz cuvettes. […] Integrated time-resolved phosphorescence traces were analysed using FluoFit software (PicoQuant GmbH, Berlin, Germany) to extract the singlet oxygen decay lifetime. […]

MC28 cells [3] = assay: Cellular uptake and subcellular localisation, confocal microscopy with LysoTracker Green; format: cell-based, rat; settings: same concentration and image intensity scale as the conjugates
Method: Cells were seeded in small Petri dishes, with a glass cover slip bottom window for use with an inverted microscope (Fluorodish, World Precision Inst. UK), and allowed to attach overnight. Cells were incubated for 24 h with the compounds (2.5 µM). Afterwards, culture medium was removed and replaced with fresh medium containing Lysotracker Green (100 nM) for 30 min before microscope imaging. Cells were washed 2 times with PBS and incubated with drug-free/phenol red-free medium for confocal imaging using an Olympus Laser scanning confocal microscope (FluoView FV1000, 60x magnification, NA 1.20, Olympus UK Ltd, Essex, UK). Fluorescence from the photosensitiser was recorded within the range of 620–720 nm using a 405 nm laser for the excitation. For LysoTracker Green, cells were illuminated at 488 nm and the fluorescence signal was recorded at 500–550 nm. Colocalisation analysis and image processing of the 16-bit images were performed with ImageJ software.

[4] = cited from earlier work
From the text: The rationale for selecting chlorin e6 as the photosensitiser for this study on PCI was based on its favourable photosensitising properties but also on its poor lysosomal localisation[40] and bioavailability. The cellular uptake and membrane transport of chlorin e6 has been studied in detail in relation to its acid-base properties. The structure of chlorin e6 contains three adjacent carboxylic acid functions with pKa7.9–8.3[47]which are thus only partially ionised at physiological pH leading to poor aqueous solubility, which complicates systemic administration. At lower pH, as is typical for t ...

[5] = Absorption spectra as a function of concentration (test for aggregation); format: physicochemical; settings: methanolic solution; up to 8 μM; 398 nm for conjugates, 399 nm for chlorin e6
Method: For the determination of the singlet oxygen quantum yield (ΦΔ), deuterated methanol (CD3OD) was used since singlet oxygen has a relatively long lifetime in deuterated solvents. To confirm that the methanolic solutions of the conjugates and chlorin e6 at the concentrations studied were monomeric, absorption spectra were recorded as a function of concentration. […] The singlet oxygen quantum yields in deuterated methanol were measured using a standard reference compound, Rose Bengal (ΦΔ = 0.76)[43] using matched reference solution absorbances at the laser wavelength of 532 nm. Using standard zero-point intercept analysis of the singlet oxygen decays, the quantum yield of chlorin e6 was calculated as 0.67, which is in good agreement with the literature, as reviewed by Redmond et al.[43]. Morjzisova et al. reported the quantum yields of several chlorins in dimethylformamide and measured a value of 0.63 for chlorin e6, and observed a similar value for another clinical chlorin PDT photosensitiser, mTHPC (0.68) and disulfonated tetraphenyl chlorin (0.66)[44].
For the singlet oxygen studies, absorption spectra of the compounds were measured using a Perkin-Elmer Lambda 25 UV/Vis spectrometer (Perkin-Elmer, Beaconsfield, UK) with quartz cuvettes. […]

MC28 cells [6] = assay: In vitro PDT phototoxicity, MTT assay; format: cell-based, rat; settings: 3.2 µM, 18 h incubation, 5 min illumination, 420 nm, 7 mW cm-2, MTT 48 h after light, three independent experiments
[7] = test system: human pharyngeal FaDu carcinoma cells; settings: cited from earlier work
From the text: The lower uptake of the free chlorin is consistent with its lower PDT efficacy compared to the conjugates, as discussed below. […] Figure 3H and I show sequential images ...

[8] = standard reference compound in deuterated methanol; cited from earlier work
From the text: For the determination of the singlet oxygen quantum yield (ΦΔ), deuterated methanol (CD3OD) was used since singlet oxygen has a relatively long lifetime in deuterated solvents. To confirm that the methanolic solutions of the conjugates and chlorin e6 at the concentrations studied were monomeric, absorption ...

For saporin, the “reduction in viability, saporin alone” value (KB cells) was < 20%.
In the case of Oc1cccc(-c2c3nc(c(-c4cccc(O)c4)c4ccc([nH]4)c(-c4cccc(O)c4)c4nc(c(-c5cccc(O)c5)c5ccc2[nH]5)CC4)C=C3)c1 [mTHPC], the “singlet oxygen quantum yield” value [1] is listed as 0.68.
In the case of disulfonated tetraphenyl chlorin, the “singlet oxygen quantum yield” value [1] is given as 0.66.
In the case of C=Cc1c(C)c2cc3nc(c(CC(=O)O)c4[nH]c(cc5nc(cc1[nH]2)C(C)=C5CC)c(C)c4C(=O)O)[C@@H](CCC(=O)O)[C@@H]3C [chlorin e6], the “singlet oxygen quantum yield (ΦΔ)” value [2] is given as 0.67, the “cellular uptake, intracellular fluorescence relative to the conjugates” value (MC28 cells [3]) is given as “much lower fluorescence” and the “pKa of the three carboxylic acid functions” value [4] is given as 7.9–8.3. For the same compound, the “peak absorbance of the Soret band versus concentration (monomeric or aggregated)” value [5] was “linear”, the “singlet oxygen quantum yield” value [1] was 0.63 and the “loss of viability (PDT)” value (MC28 cells [6]) was “less than 20%”. For the same compound, the “cellular uptake of free chlorin e6 compared to dendrimer conjugates of chlorin e6” value [7] was “an order of magnitude lower”.
For O=C([O-])c1c(Cl)c(Cl)c(Cl)c(Cl)c1-c1c2cc(I)c(=O)c(I)c-2oc2c(I)c([O-])c(I)cc12.[Na+].[Na+] [Rose Bengal], the “singlet oxygen quantum yield (ΦΔ) of reference standard” value [8] is listed as 0.76.

From PMC5519633, “Endolysosomal targeting of a clinical chlorin photosensitiser for light-triggered delivery of nano-sized medicines” (Scientific Reports, 2017)
